Experimental data taken from patent publication US20120121691A1, “Method for Increasing the Production of a Specific ACYL-Chain Dihydroceramide(s) for Improving the Effectiveness of Cancer Treatments” (priority 2010, published 2012).
Like-named read-outs stand apart in the source and are kept apart here.

Tests used:
CCRF-CEM = test system: CCRF-CEM
Protocol: Statistical analyses. Descriptive statistics and significance testing were performed using Microsoft Excel. The Excel function “t.test” was used for Student's T-testing (two-tailed, type-2). Propagated standard deviations were calculated using standard methods. Correlation analyses were performed using Sigmaplot 11 software. […]
Due to the confounding effect of in vitro fatty acid conversion, correlation analyses were used to identify significant relationships between absolute levels of specific sphingolipids and cytotoxicity. […]

COG-LL-317 = type: cell-based, human
Protocol: (§1) Statistical analyses. […] Propagated standard deviations were calculated using standard methods. Correlation analyses were performed using Sigmaplot 11 software.

COG-LL-332 = type: cell-based, human
Protocol: as §1

MOLT-4 = type: cell-based, human
Protocol: as §1

| SMILES | Pearson Coef. (r), sphingolipid level vs cytotoxicity (CCRF-CEM) | Spearman Coef. (ρ), sphingolipid level vs cytotoxicity (CCRF-CEM) | Pearson Coef. (r), sphingolipid level vs cytotoxicity (COG-LL-317) | Spearman Coef. (ρ), sphingolipid level vs cytotoxicity (COG-LL-317) | Pearson Coefficient (r), sphingolipid level vs cytotoxicity (COG-LL-332) | Spearman Coefficient (ρ), sphingolipid level vs cytotoxicity (COG-LL-332) | Pearson Coef. (r), sphingolipid level vs cytotoxicity (MOLT-4) | Spearman Coef. (ρ), sphingolipid level vs cytotoxicity (MOLT-4) | Pearson Coef. (r), sphingolipid level vs cytotoxicity (CCRF-CEM; CCRF-CEM) | Spearman Coef. (ρ), sphingolipid level vs cytotoxicity (CCRF-CEM; CCRF-CEM) |
| --- | --- | --- | --- | --- | --- | --- | --- | --- | --- | --- |
| CCCCCCCCCCCCC/C=C/[C@@H](O)[C@H](CO)NC(=O)CCCCCCCCCCCCC [C14:0-Cer] | 0.03 | 0.01 | −0.54 | −0.43 | −0.32 | −0.28 | −0.53 | −0.48 |  |  |
| CCCCCCCCCCCCCCC[C@@H](O)[C@H](CO)NC(=O)CCCCCCCCCCCCC [C14:0-DHCer] | 0.12 | 0.20 | 0.16 | 0.10 | 0.06 | 0.18 | 0.13 | 0.35 |  |  |
| CCCCCCCCCCCCCC=CC(O)C(CO)NC(=O)CCCCCCCCCCCCCCC (stereo not shown) [C16:0-Cer] | 0.25 | 0.03 | −0.48 | −0.50 | −0.09 | −0.05 | −0.62 | −0.76 |  |  |
| CCCCCCCCCCCCCCCC(=O)N[C@@H](CO)[C@H](O)CCCCCCCCCCCCCCC [C16:0-DHCer] | 0.26 | 0.37 | 0.03 | 0 | 0.45 | 0.62 | 0.26 | 0.57 |  |  |
| CCCCCCCCCCCCCC=CC(O)C(CO)NC(=O)CCCCCCCCCCCCCCCCC (stereo not shown) [C18:0-Cer] | 0.14 | 0.07 | −0.45 | −0.60 | −0.54 | −0.38 | −0.33 | −0.45 |  |  |
| CCCCCCCCCCCCCCCCCC(=O)N[C@@H](CO)[C@H](O)CCCCCCCCCCCCCCC [C18:0-DHCer] | 0.22 | 0.15 | −0.22 | −0.38 | −0.16 | −0.16 | 0.12 | 0.14 |  |  |
| CCCCCCCCC=CCCCCCCCC(=O)NC(CO)C(O)C=CCCCCCCCCCCCCC (stereo not shown) [C18:1-Cer] | 0.11 | 0.10 | −0.50 | −0.59 | −0.45 | −0.30 | −0.52 | −0.59 |  |  |
| CCCCCCCCCCCCCC=CC(O)C(CO)NC(=O)CCCCCCCCCCCCCCCCCCC (stereo not shown) [C20:0-Cer] | 0.01 | 0.07 | −0.63 | −0.81 | −0.79 | −0.91 | −0.46 | −0.52 |  |  |
| CCCCCCCCCCCCCCCCCCCC(=O)N[C@@H](CO)[C@H](O)CCCCCCCCCCCCCCC [C20:0-DHCer] | 0.20 | 0.32 | −0.04 | 0.14 | −0.09 | 0 | 0.12 | 0.14 |  |  |
| CCCCCCCCCCCCCC=CC(O)C(CO)NC(=O)CCCCCCCCCCCCCCCCCCCCC (stereo not shown) [C22:0-Cer] | 0.42 | 0.48 | 0.59 | 0.33 | 0.45 | 0 | 0.46 | 0.31 |  |  |
| CCCCCCCCCCCCCCCCCCCCCC(=O)N[C@@H](CO)[C@H](O)CCCCCCCCCCCCCCC [C22:0-DHCer] | 0.67 | 0.75 | 0.86 | 0.79 | 0.73 | 0.81 | 0.79 | 0.91 |  |  |
| CCCCCCCCC=CCCCCCCCCCCCC(=O)NC(CO)C(O)C=CCCCCCCCCCCCCC (stereo not shown) [C22:1-Cer] | −0.23 | −0.24 | −0.28 | −0.60 | −0.14 | −0.26 | −0.32 | −0.48 |  |  |
| CCCCCCCCC=CCCCCCCCCCCCC(=O)NC(CO)C(O)CCCCCCCCCCCCCCC (stereo not shown) [C22:1-DHCer] | −0.13 | 0.22 | −0.28 | −0.26 | 0.07 | 0.62 | −2.5 × 10^−3 | 0.24 |  |  |
| CCCCCCCCCCCCCC=CC(O)C(CO)NC(=O)CCCCCCCCCCCCCCCCCCCCCCC (stereo not shown) [C24:0-Cer] | 0.40 | 0.41 | 0.48 | 0.25 | 0.39 | 0.38 | 0.33 | 0 |  |  |
| CCCCCCCCCCCCCCCCCCCCCCCC(=O)N[C@@H](CO)[C@H](O)CCCCCCCCCCCCCCC [C24:0-DHCer] | 0.58 | 0.84 | 0.89 | 0.91 | 0.74 | 0.83 | 0.79 | 0.88 |  |  |
| CCCCCCCC/C=C\CCCCCCCCCCCCCC(=O)N[C@@H](CO)[C@H](O)/C=C/CCCCCCCCCCCCC [C24:1-Cer] | −0.27 | −0.32 | −0.42 | −0.74 | −0.07 | 0.05 | −0.43 | −0.55 |  |  |
| CCCCCCCC/C=C\CCCCCCCCCCCCCC(=O)N[C@@H](CO)[C@H](O)CCCCCCCCCCCCCCC [C24:1-DHCer] | −0.17 | −0.07 | −0.29 | −0.21 | 0.14 | 0.45 | −0.04 | 0.12 |  |  |
| CCCCCCCCCCCCCCC[C@@H](O)[C@@H](N)COP(=O)(O)O [Sphingaine-1-P] | 0.44 | 0.38 |  |  |  |  |  |  |  |  |
| CCCCCCCCCCCCC/C=C/[C@@H](O)[C@@H](N)COP(=O)(O)O [Sphingosine-1-P] |  |  |  |  |  |  |  |  | −0.07 | 0.27 |
| CCCCCCCCCCCCC/C=C/[C@@H](O)[C@@H](N)CO [Sphingosine] | 0.02 | −0.19 |  |  |  |  |  |  |  |  |
